Assay results reported in the NIST ThermoML archive (doi:10.1021/acs.jced.8b00298).
Numbers after ± are expanded uncertainties.

Conditions: Liquid
[1] = Visual observation in an unstirred cell

SMILES | Critical molar volume (Visual) [m3/mol] | Critical pressure (Visual) [kPa] | Critical temperature [1] [K] | Critical pressure (Capillary flow) [kPa] | Critical temperature (Capillary flow) [K]
C[C@@H]1CCCC[C@H]1C (relative stereo) [trans-1,2-dimethylcyclohexane] | 0.00044 ± 2e-05 | 3080 ± 30 | 596.3 ± 0.3 |  | 
CC(C)(C)C1CCCCC1 [1,1-dimethylethylcyclohexane] | 0.0005 ± 2e-05 | 2770 ± 30 | 646.9 ± 0.2 |  | 
COCCOC [1,2-dimethoxyethane] | 0.00031 ± 2e-05 | 3830 ± 40 | 535.32 ± 0.24 |  | 
OCC1CCC(CO)CC1 (configuration not stated) [1,4-bis(hydroxymethyl)cyclohexane] |  |  |  | 4000 ± 240 | 800.3 ± 4
COCC(C)=O [1-methoxy-2-propanone] |  |  |  | 4210 ± 90 | 584 ± 2
CCC(=O)OC(C)COC (configuration not stated) [1-methoxypropan-2-yl propionate] |  |  |  | 2600 ± 80 | 611.7 ± 2.4
C=C(C)OC(C)=O [1-methylvinyl ethanoate] |  |  |  | 3630 | 549.8 ± 2
CC(C)C(O)C(C)(C)CO (configuration not stated) [2,2,4-trimethyl-1,3-pentanediol] |  |  |  | 3110 ± 140 | 708.2 ± 3.2
C=C(C)CC(C)(C)C [2,4,4-trimethyl-1-pentene] |  |  |  | 2730 ± 120 | 550.7 ± 4
COCCOCCOCCOCCOC [2,5,8,11,14-pentaoxapentadecane] |  |  |  | 1980 ± 120 | 726.6 ± 4
COCCOCCOCCOC [2,5,8,11-tetraoxadodecane] |  |  |  | 2310 ± 60 | 681.2 ± 2.4
COCCOCCOC [2,5,8-trioxanonane] |  |  |  | 2830 ± 120 | 619.7 ± 4
CC(C)CCCC(C)CCCC(C)CCCCC(C)CCCC(C)CCCC(C)C (configuration not stated) [2,6,10,15,19,23-hexamethyltetracosane] |  |  |  | 657 ± 67 | 805 ± 20
CCOCCO [2-ethoxyethan-1-ol] |  |  |  | 4200 ± 110 | 598.9 ± 4
C=CC(=O)OCC(CC)CCCC (configuration not stated) [2-ethylhexyl 2-propenoate] |  |  |  | 2080 ± 140 | 672.5 ± 6
COC(C)CO (configuration not stated) [2-methoxy-1-propanol] |  |  |  | 4310 ± 140 | 596.6 ± 3
CC(C)C=O [2-methylpropanal] |  |  |  | 4210 ± 140 | 519 ± 3
CC(C)C#N [2-methylpropanenitrile] |  |  |  | 3672 ± 150 | 560.8 ± 2
Cc1cccs1 [2-methylthiophene] |  |  |  | 4620 ± 140 | 602 ± 2
OCCOc1ccccc1 [2-phenoxyethanol] |  |  |  | 3860 ± 120 | 749.4 ± 2
O=C1CCCN1 [2-pyrrolidinone] |  |  |  | 5590 ± 220 | 789.1 ± 3.6
COCCC#N [3-methoxypropanenitrile] |  |  |  | 4040 ± 120 | 650.9 ± 2.4

SMILES | Critical molar volume (Visual) [m3/mol] | Critical pressure (Visual) [kPa] | Critical temperature [1] [K] | Critical pressure (Capillary flow) [kPa] | Critical temperature (Capillary flow) [K]
COC(C)OC [3-methyl-2,4-dioxapentane] |  |  |  | 4300 ± 260 | 511.6 ± 5.6
Cc1ccsc1 [3-methylthiophene] |  |  |  | 4620 ± 140 | 607.3 ± 3
Cc1ccc(C=O)cc1 [4-methylbenzaldehyde] |  |  |  | 3920 ± 90 | 715.8 ± 4
CC(C)(C)c1ccccc1 [(1,1-dimethylethyl)benzene] | 0.00048 ± 2e-05 | 2900 ± 30 | 646.9 ± 0.2 |  | 
CC(C)C1CCCCC1 [(1-methylethyl)cyclohexane] | 0.00048 ± 2e-05 | 2940 ± 30 | 635.3 ± 0.2 |  | 
CCC(C)c1ccccc1 (configuration not stated) [(1-methylpropyl)benzene] | 0.00048 ± 2e-05 | 3030 ± 30 | 653 ± 0.2 |  | 
CCN(CC)CCO [(diethylamino)ethanol] |  |  |  | 3247 ± 130 | 625.9 ± 4
CC(=O)N(C)C [N,N-dimethylethanamide] |  |  |  | 4260 ± 120 | 660.2 ± 2.6
OCCN1CCNCC1 [N-(2-hydroxyethyl)piperazine] |  |  |  | 3980 ± 480 | 760 ± 12
CNC(C)=O [N-methylacetamide] |  |  |  | 5090 ± 200 | 707.4 ± 2
CNC=O [N-methylformamide] |  |  |  | 6080 ± 260 | 715.6 ± 4
CN1CCCCC1 [N-methylpiperidine] |  |  |  | 3660 ± 160 | 581.5 ± 3.6
Cn1cccc1 [N-methylpyrrole] |  |  |  | 4210 ± 140 | 587.4 ± 3
CN1CCCC1 [N-methylpyrrolidine] | 0.0003 ± 2e-05 | 4000 ± 40 | 548.62 ± 0.24 |  | 
Sc1ccccc1 [benzenethiol] |  |  |  | 4650 ± 180 | 689.2 ± 4
C=C(C)C(=O)OCCCC [butyl 2-methyl-2-propenoate] |  |  |  | 2520 ± 120 | 615.8 ± 4
CCCCc1ccccc1 [butylbenzene] | 0.0005 ± 2e-05 | 2890 ± 30 | 660.3 ± 0.2 |  | 
CCCCC1CCCCC1 [butylcyclohexane] | 0.00056 ± 2e-05 | 2510 ± 30 | 649.3 ± 0.2 |  | 
S=C=S [carbon disulfide] | 0.000176 ± 9e-06 | 7330 ± 60 | 552.5 ± 0.2 |  | 
C[C@@H]1CCCC[C@@H]1C [cis-1,2-dimethylcyclohexane] | 0.00041 ± 2e-05 | 3350 ± 30 | 607.29 ± 0.24 |  | 
C[C@@H]1CCC[C@H](C)C1 [cis-1,3-dimethylcyclohexane] | 0.00043 ± 2e-05 | 3040 ± 30 | 586.1 ± 0.2 |  | 
SC1CCCCC1 [cyclohexanethiol] |  |  |  | 3970 ± 160 | 669.6 ± 4

SMILES | Critical molar volume (Visual) [m3/mol] | Critical pressure (Visual) [kPa] | Critical temperature [1] [K] | Critical pressure (Capillary flow) [kPa] | Critical temperature (Capillary flow) [K]
CCOC(=O)OCC [diethyl carbonate] |  |  |  | 3080 ± 120 | 578.2 ± 3
CCCCCCOCCCCCC [dihexyl ether] |  |  |  | 1763 ± 110 | 663 ± 3
COCOC [dimethoxymethane] |  |  |  | 4550 ± 280 | 488.9 ± 3.2
COC(=O)c1ccc(C(=O)OC)cc1 [dimethyl 1,4-benzenedicarboxylate] |  |  |  | 2760 ± 400 | 779 ± 20
COC(=O)OC [dimethyl carbonate] |  |  |  | 4450 ± 130 | 556.3 ± 3
CN(C)C=O [dimethylformamide] |  |  |  | 4720 ± 140 | 650.6 ± 3
CCCCCCCCOCCCCCCCC [dioctyl ether] |  |  |  | 1446 ± 85 | 727 ± 4
c1ccc(Cc2ccccc2)cc1 [diphenylmethane] |  |  |  | 2920 ± 60 | 770 ± 2
C=C(C)C(=O)OCC [ethyl 2-methylpropenoate] |  |  |  | 3170 ± 120 | 572 ± 3
C=CC(=O)OCC [ethyl propenoate] |  |  |  | 3710 ± 100 | 555.2 ± 2
CCC1CCCCC1 [ethylcyclohexane] | 0.00043 ± 2e-05 | 3110 ± 30 | 605.9 ± 0.2 |  | 
O=C1OCCO1 [ethylene carbonate] |  |  |  | 5280 ± 800 | 786 ± 10
CC(=O)OCCOC(C)=O [ethylene diacetate] |  |  |  | 3080 ± 100 | 654.9 ± 3
COC(=O)CC(C)=O [methyl 3-oxobutanoate] |  |  |  | 3830 ± 140 | 652.8 ± 4
C=C(C)C(=O)OC [methyl methacrylate] |  |  |  | 3750 ± 100 | 557.9 ± 1.6
C=CC(=O)OC [methyl propenoate] |  |  |  | 3990 ± 140 | 532.7 ± 2.6
C1CCNCC1 [piperidine] |  |  |  | 4560 ± 140 | 594.4 ± 3
c1cc[nH]c1 [pyrrole] |  |  |  | 6300 ± 170 | 633.3 ± 3
C1CCSC1 [tetrahydrothiophene] |  |  |  | 5430 ± 300 | 634.6 ± 6
C[C@H]1CC[C@H](C)CC1 [trans-1,4-dimethylcyclohexane] | 0.00042 ± 2e-05 | 3060 ± 30 | 585.84 ± 0.24 |  | 
